Assay results taken from patent publication US11911383B2, “Oral solution formulation” (Pfizer Inc., priority 2018, dated 2024).
In brackets after ≈: the same amount, converted by molar mass. Read-outs that look alike come from different tables or passages of the source.

Tests used:
[1] = Solubility of palbociclib (free base) in various aqueous buffers, with total degradation by HPLC; assay type: physicochemical; settings: for solubility at 28 h: aqueous buffer solution, 25 °C, thermodynamic from solid
Method: The solubility of palbociclib (free base) was assessed in various aqueous buffer solutions and mixtures thereof. The buffers were prepared at concentrations ranging from 0.01 M to 0.2 M and at pH values ranging from 2.0 to 8.4. Samples were prepared by weighing and transferring approximately 200 mg of palbociclib to 3-4 mL of the buffer. The solutions were vortexed and placed in a temperature cycle chamber for 8 hours at 25° C., followed by 12 hours at 40° C., then 8 hours at 25° C. The resulting solutions were then analyzed by HPLC to determine the solubility (mg/mL) of palbociclib in the buffer. […] NT=Not tested.

[2] = Effect of pH on the oral aqueous solution (degradation, precipitation); assay type: physicochemical; settings: pH values above about 4.3
From the text: In some embodiments, the oral aqueous solution has a pH of from about 3.0 to about 4.5. In some embodiments, the oral aqueous solution has a pH of from about 3.5 to about 4.3. In frequent embodiments, the oral aqueous solution has a pH of from about 3.6 to about 4.0. In some such embodiments, the oral aqueous solution has a pH of about 3.8.

[3] = Sample P: 0.032M Malic Acid, pH NT
[4] = Sample Q: 0.02M Malic Acid, pH NT
[5] = Sample R: 0.01M Malic Acid, pH NT
[6] = aqueous buffer systems of lactic acid and malic acid

Compound: CC(=O)c1c(C)c2cnc(Nc3ccc(N4CCNCC4)cn3)nc2n(C2CCCC2)c1=O [palbociclib, 6-acetyl-8-cyclopentyl-5-methyl-2-(5-piperazin-1-yl-pyridin-2-ylamino)-8H-pyrido[2,3-d]pyrimidin-7-one]
- Total Degradation ([1]; Sample A: 0.2M Citric Acid, pH 2.02, new HPLC peaks greater than 0.05%): 0.52%
- Total Degradation ([1]; Sample B: 0.2M Malic Acid, pH 2.00): 0.20%
- Total Degradation ([1]; Sample C: 0.2M DL Lactic Acid, pH 2.07): 0%
- Total Degradation ([1]; Sample D: 0.2M Succinic acid, pH 2.42): 0.66%
- Total Degradation ([1]; Sample E: 0.2M Sodium succinate, pH 8.38): 0%
- Total Degradation ([1]; Sample F: 0.2M Sodium dihydrogen phosphate dihydrate, pH 2.01): 1.27%
- Total Degradation ([1]; Sample G: 9.5 mL D + 0.5 mL E, pH 3.15): 0.29%
- Total Degradation ([1]; Sample H: 9 mL D + 1 mL E, pH 3.45): 3.03%
- Total Degradation ([1]; Sample I: 8 mL D + 2 mL E, pH 3.93): 3.43%
- Total Degradation ([1]; Sample J: 5 mL D + 5 mL E, pH 4.62): 1.31%
- Total Degradation ([1]; Sample K: 5 mL D + 10 mL E, pH 4.98): 1.08%
- Total Degradation ([1]; Sample L: 5 mL D + 15 mL E, pH 5.25): 1.46%
- Total Degradation ([1]; Sample M: 0.1M DL Lactic Acid, pH 2.31): 0.00%
- Total Degradation ([1]; Sample N: 0.05M DL Lactic Acid, pH 2.46): 0.00%
- Total Degradation ([1]; Sample O: 0.01M DL Lactic Acid, pH 2.83): 0.19%
- Solubility [1, 3]: 530 µg/mL (≈ 1.18 mM)
- Total Degradation [1, 3]: 1.66%
- Solubility [1, 4]: 600 µg/mL (≈ 1.34 mM)
- Total Degradation [1, 4]: 1.62%
- Solubility [1, 5]: 600 µg/mL (≈ 1.34 mM)
- Total Degradation [1, 5]: 1.63%
- solubility at 28 h ([1]; pH 2, aqueous buffer, Sample B: 0.2M Malic Acid, pH 2.00, read-out: Solubility): 15700 µg/mL (≈ 35.1 mM)
- solubility at 28 h ([1]; pH 2.01, aqueous buffer, Sample F: 0.2M Sodium dihydrogen phosphate dihydrate, pH 2.01, read-out: Solubility): 650 µg/mL (≈ 1.45 mM)
- solubility at 28 h ([1]; pH 2.02, aqueous buffer, Sample A: 0.2M Citric Acid, pH 2.02, temperature cycle 25/40/25° C., read-out: Solubility): 4000 µg/mL (≈ 8.94 mM)
- solubility at 28 h ([1]; pH 2.07, aqueous buffer, 0.2M DL lactic acid buffer, read-out: Amount dissolved with solution still clear (saturated solubility not yet reached)): > 45700 µg/mL
- solubility at 28 h ([1]; pH 2.07, aqueous buffer, Sample C: 0.2M DL Lactic Acid, pH 2.07, read-out: Solubility): 45700 µg/mL (≈ 102 mM)
- solubility at 28 h ([1]; pH 2.31, aqueous buffer, Sample M: 0.1M DL Lactic Acid, pH 2.31, read-out: Solubility): 36300 µg/mL (≈ 81.1 mM)
- solubility at 28 h ([1]; pH 2.42, aqueous buffer, Sample D: 0.2M Succinic acid, pH 2.42, read-out: Solubility): 1100 µg/mL (≈ 2.46 mM)
- solubility at 28 h ([1]; pH 2.46, aqueous buffer, Sample N: 0.05M DL Lactic Acid, pH 2.46, read-out: Solubility): 16200 µg/mL (≈ 36.2 mM)
- solubility at 28 h ([1]; pH 2.83, aqueous buffer, Sample O: 0.01M DL Lactic Acid, pH 2.83, read-out: Solubility): 3800 µg/mL (≈ 8.49 mM)
- solubility at 28 h ([1]; pH 3.15, aqueous buffer, Sample G: 9.5 mL D + 0.5 mL E (succinic acid/sodium succinate), pH 3.15, read-out: Solubility): 1700 µg/mL
- solubility at 28 h ([1]; pH 3.45, aqueous buffer, Sample H: 9 mL D + 1 mL E, pH 3.45, read-out: Solubility): 340 µg/mL
- solubility at 28 h ([1]; pH 3.93, aqueous buffer, Sample I: 8 mL D + 2 mL E, pH 3.93, read-out: Solubility): 67 µg/mL
- solubility at 28 h ([1]; pH 4.62, aqueous buffer, Sample J: 5 mL D + 5 mL E, pH 4.62, read-out: Solubility): 68 µg/mL
- solubility at 28 h ([1]; pH 4.98, aqueous buffer, Sample K: 5 mL D + 10 mL E, pH 4.98, read-out: Solubility): 55 µg/mL
- solubility at 28 h ([1]; pH 5.25, aqueous buffer, Sample L: 5 mL D + 15 mL E, pH 5.25, read-out: Solubility): 91 µg/mL
- solubility at 28 h ([1]; pH 8.38, aqueous buffer, Sample E: 0.2M Sodium succinate, pH 8.38, read-out: Solubility): 4 µg/mL (≈ 0.00894 mM)
- Degradation (in words) [1, 6]: minimal degradation
- Solubility (in words) [1, 6]: significantly enhanced solubility
- Precipitation of the API [2]: Some precipitation
